Results taken from US8748412B2, “Phenylalanine derivatives and their use as non-peptide GLP-1 receptor modulators” (Argusina Bioscience Inc., priority 2011, dated 2014).

Molecular target: T1, human GLP1R (Homo sapiens, UniProt P43220)
T1 construct: expressed in transfected cells; host or cells: CHO cells (ATCC), transient transfection with pCMV-human GLP1R
Assay: Human GLP-1 receptor transfected cell assay (MRE/CRE-luciferase reporter gene, agonist activity)
Format: cell-based
Settings: 6 h; conc. 10 μM; percentage of the activity of the control; read-out: Agonist Activity
Description: The glucagon-like peptide I receptor (GLP1R) is a class B Gs-coupled membrane receptor, an agonist of which activates adenylate cyclase (AC) and elevates intracellular cAMP level. In turn, the high content of secondary messengers can activate the cAMP response element binding protein (CREB), which can translocate into nucleus to activate gene transcription.
A reporter gene based screening assay was established to measure the effect of a compound on GLP1R. In this assay, a compound was incubated with CHO cells transiently transfected with a human GLP1R plasmid and a multiple response element (MRE)/cAMP response element (CRE)-driven luciferase reporter plasmid. Once luciferase was induced by the compound, its specific substrate can be activated to produce light signal for measurement.
Materials used in this assay included: (i) cell line: Chinese hamster ovary (CHO) cells (ATCC); (ii) fetal bovine serum (FBS) (Biochrom Co.); (iii) culture medium: RPMI1640 (Invitrogen Co.) supplemented with 10% FBS; (iv) LIPOFECTAMINE™ 2000 Reagent (Invitrogen Co.); (v) plasmids: pCMV-human GLP1R and pGL3-1905 reporter plasmid; (vi) GLP1 (7-36 amide) peptide (Sigma Co.); and (vii) BRIGHT-GLO™ Luciferase Assay System (Promega Co.).
Instruments used in this assay included: (i) Form a carbon dioxide incubator (Thermo Form a Co.); and (ii) Flexstation 3 (Molecular Device Co.).
Before transfection, CHO cells were plated into a 6-well culture plate at 800,000/2 mL/well, and cultured at 37° C. in 5% CO2 overnight. On the transfection day, cells were transfected with receptor plasmid and reporter plasmid using LIPOFECTAMINE™ 2000 reagent. After 6-hour transfection, cells were digested and seeded into 96-well plates at 20,000/100 μL/well. After 14-16 hour incubation, transfected cells were washed with 100 μL serum-free RPMII 640 medium first, and then added 50 μL of the culture medium. The GLP-1 standard and test compounds were respectively diluted to a series of concentrations, which were then added into the above 96-well culture plate at 50 μL/well. The cells were incubated at 37° C. in 5% CO2 for 6 hrs. The activity of luciferase was detected using BRIGHT-GLO™ Luciferase Analytic System, and the reading was performed with a Flexstation3 plate reader machine.

T1 sequence (P43220 24-463): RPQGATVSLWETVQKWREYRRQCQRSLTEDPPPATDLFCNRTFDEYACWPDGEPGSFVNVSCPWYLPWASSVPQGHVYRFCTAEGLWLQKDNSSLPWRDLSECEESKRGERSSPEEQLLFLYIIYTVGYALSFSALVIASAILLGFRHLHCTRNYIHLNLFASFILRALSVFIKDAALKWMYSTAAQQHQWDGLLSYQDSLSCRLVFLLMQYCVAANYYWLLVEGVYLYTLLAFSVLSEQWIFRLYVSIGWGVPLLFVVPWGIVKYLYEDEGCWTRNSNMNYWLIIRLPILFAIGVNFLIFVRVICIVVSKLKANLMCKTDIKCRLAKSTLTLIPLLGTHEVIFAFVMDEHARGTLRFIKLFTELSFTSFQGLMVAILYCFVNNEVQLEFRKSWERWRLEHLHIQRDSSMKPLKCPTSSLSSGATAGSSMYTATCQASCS

activation at 10 µM | Compound
20 to 40% | CC(C)(C)OC(=O)Nc1ccc(-c2nc(-c3ccc(CC(NS(=O)(=O)c4ccc(OC(F)(F)F)cc4)C(=O)O)cc3F)no2)cc1 (centres unmarked) [Compound 11L]
> 60% | CC(C)(C)OC(=O)Nc1ccc(-c2nc(-c3ccc(CC(NC(=O)Nc4cc(-c5ccccc5)n[nH]4)C(=O)O)cc3F)no2)cc1 (centres unmarked) [Compound 11S]
> 60% | Cc1cccc(-c2ccc(NC(=O)NC(Cc3ccc(-c4noc(-c5ccc(NC(=O)OC(C)(C)C)cc5)n4)c(F)c3)C(=O)O)nc2)c1 (centres unmarked) [Compound 13L]
> 60% | CC(C)(C)OC(=O)Nc1ccc(-c2nc(-c3ccc(CC(NC(=O)c4ccc(-c5ccc(C(F)(F)F)cc5)o4)C(=O)O)cc3F)no2)cc1 (centres unmarked) [Compound 11O]
> 60% | CC(C)(C)OC(=O)Nc1ccc(-c2nc(-c3ccc(CC(NC(=O)N4CCN(c5cccc(Cl)c5)CC4)C(=O)O)cc3F)no2)cc1 (centres unmarked) [Compound 12C]
> 60% | CC(C)(C)OC(=O)Nc1ccc(-c2nc(-c3ccc(CC(NC(=O)Nc4ccc(-c5cccs5)cn4)C(=O)O)cc3F)no2)cc1 (centres unmarked) [Compound 13Z]
> 60% | CC(C)(C)OC(=O)Nc1ccc(-c2nc(-c3ccc(CC(NC(=O)Nc4ccc(C(F)(F)F)cc4)C(=O)O)cc3F)no2)cc1 (centres unmarked) [Compound 13H]
> 60% | CC(C)(C)OC(=O)Nc1ccc(-c2nc(-c3ccc(CC(NC(=O)Nc4cc(-c5ccc(F)cc5)n[nH]4)C(=O)O)cc3F)no2)cc1 (centres unmarked) [Compound 12I]
> 60% | Cc1ccccc1-c1ccc(NC(=O)NC(Cc2ccc(-c3noc(-c4ccc(NC(=O)OC(C)(C)C)cc4)n3)c(F)c2)C(=O)O)nc1 (centres unmarked) [Compound 13U]

Same assay, conditions: 6 h; concentration 1 μM; read-out: Activity (agonist), percentage of the activity of the control

activation at 1 µM | Compound
20 to 40% | CC(C)(C)OC(=O)Nc1ccc(-c2nc(-c3ccc(C[C@@H](NS(=O)(=O)c4ccc(-c5ccccc5)cc4)C(=O)O)cc3F)no2)cc1 [Compound 3Q]
> 60% | Cc1ccc(-c2ccc(C(=O)NC(Cc3ccc(-c4ccc(-c5ccc(NC(=O)OC(C)(C)C)cc5)s4)c(F)c3)C(=O)O)o2)cc1 (centres unmarked) [Compound 5N]
40 to 60% | Cc1ccc(-c2ccc(C(=O)NC(Cc3ccc(-c4noc(-c5ccc(NC(=O)OC(C)C)cc5)n4)c(F)c3)C(=O)O)o2)cc1 (centres unmarked) [Compound 2D]
> 60% | CC1CCN(c2cccc(C(=O)NC(Cc3ccc(-c4noc(-c5ccc(NC(=O)OC(C)(C)C)cc5)n4)c(F)c3)C(=O)O)c2)CC1 (centres unmarked) [Compound 3S]
20 to 40% | CC(C)(C)OC(=O)Nc1ccc(-c2nc(-c3ccc(C[C@@H](NC(=O)c4cccc(C#CC5CC5)c4)C(=O)O)cc3F)no2)cc1 [Compound 6T]
> 60% | Cc1ccc(N2CCN(C(=O)NC(Cc3ccc(-c4noc(-c5ccc(NC(=O)OC(C)(C)C)cc5)n4)c(F)c3)C(=O)O)CC2)cc1 (centres unmarked) [Compound 4D]
> 60% | Cc1ccc(-c2cccc(C(=O)NC(Cc3ccc(-c4noc(-c5ccc(NC(=O)OC(C)(C)C)cc5)n4)c(F)c3)C(=O)O)c2)cc1 (centres unmarked) [Compound 1U]
> 60% | Cc1ccc(-c2ccc(C(=O)N[C@H](Cc3ccc(-c4noc(-c5ccc(NC(=O)OC(C)(C)C)cc5)n4)c(C)c3)C(=O)O)o2)cc1 [Compound 6R]
> 60% | CC(C)(C)OC(=O)Nc1ccc(-c2nc(-c3ccc(CC(NC(=O)c4cccc(-c5ccc(C6CC6)cc5)c4)C(=O)O)cc3F)no2)cc1 (centres unmarked) [Compound 2L]

Same assay, conditions: 6 h; concentration 3 μM; read-out: Activity (agonist), percentage of the activity of the control

activation at 3 µM | Compound
40 to 60% | Cc1ccc(-c2ccc(C(=O)NC(Cc3ccc(-c4noc(-c5ccc(NC(=O)C(C)C)cc5)n4)c(F)c3)C(=O)O)o2)cc1 (centres unmarked) [Compound 2C]
20 to 40% | CC(C)(C)OC(=O)Nc1ccc(-c2nc(-c3ccc(CC(NC(=O)Nc4ccc(N5CCCCC5)cc4)C(=O)O)cc3F)no2)cc1 (centres unmarked) [Compound 4Y]
40 to 60% | Cc1ccc(-c2ccc(C(=O)N[C@H](Cc3cc(F)cc(-c4noc(-c5ccc(NC(=O)OC(C)(C)C)cc5)n4)c3)C(=O)O)o2)cc1 [Compound 6X]
40 to 60% | Cc1ccc(-c2cccc(NC(=O)NC(Cc3ccc(-c4noc(-c5ccc(NC(=O)OC(C)(C)C)cc5)n4)c(F)c3)C(=O)O)c2)cc1 (centres unmarked) [Compound 5A]
20 to 40% | COc1ccc(C[C@@H](NC(=O)c2ccc(-c3ccc(C)cc3)o2)C(=O)O)cc1-c1noc(-c2ccc(NC(=O)OC(C)(C)C)cc2)n1 [Compound 6W]

Compound | activation at 3 µM
Cc1ccc(CN2CCN(S(=O)(=O)NC(Cc3ccc(-c4noc(-c5ccc(NC(=O)OC(C)(C)C)cc5)n4)c(F)c3)C(=O)O)CC2)cc1 (centres unmarked) [Compound 3X, 3-{4-[5-(4-tert-Butoxycarbonylamino-phenyl)-[1,2,4]oxadiazol-3-yl]-3-fluoro-phenyl}-2-[4-(4-methyl-benzyl)-piperazine-1-sulfonylamino]-propionic acid] | > 60%

Same assay, conditions: 6 h; concentration 3.16 μM; read-out: Activity (agonist), percentage of the activity of the control

activation at 3.16 µM | Compound
> 60% | CC(C)(C)OC(=O)Nc1ccc(-c2nc(-c3ccc(CC(NC(=O)c4cccc(-c5ccc(C6CC6)cc5)n4)C(=O)O)cc3F)no2)cc1 (centres unmarked) [Compound 2M]
> 60% | Cc1ccc(-c2ccc(C(=O)N[C@H](Cc3ccc(-c4noc(-c5ccc(NC(=O)OC(C)(C)C)cc5)n4)c(F)c3)C(=O)O)o2)cc1 [Compound 11E]
> 60% | Cc1ccc(-c2ccc(C(=O)NC(Cc3ccc(-c4noc(-c5ccc(NC(=O)OC(C)(C)C)cc5C(F)(F)F)n4)c(F)c3)C(=O)O)o2)cc1 (centres unmarked) [Compound 1P]
> 60% | CC(C)(C)OC(=O)Nc1ccc(-c2ccc(-c3ccc(CC(NC(=O)c4ccc(-c5ccc(F)cc5)o4)C(=O)O)cc3F)s2)cc1 (centres unmarked) [Compound 5O]
40 to 60% | CC(C)c1ccc(-c2ccc(C(=O)N[C@H](Cc3ccc(-c4noc(-c5ccc(NC(=O)OC(C)(C)C)cc5)n4)c(F)c3)C(=O)O)o2)cc1 [Compound 6B]
> 60% | Cc1ccc(-c2ccc(C(=O)NC(Cc3ccc(-c4noc(-c5ccc(NC(=O)OC(C)(C)C)cc5)n4)c(F)c3)C(=O)O)o2)cc1Cl (centres unmarked) [Compound 1Q]

Same assay, conditions: 6 h; concentration 10 μM; read-out: Activity (agonist), percentage of the activity of the control

activation at 10 µM | Compound
> 60% | CC(C)(C)OC(=O)Nc1ccc(-c2nc(-c3ccc(CC(NC(=O)Nc4ccc(-c5ccc(F)cc5)cn4)C(=O)O)cc3F)no2)cc1 (centres unmarked) [Compound 4X]
> 60% | CC(C)(C)OC(=O)Nc1ccc(-c2nc(-c3ccc(C[C@@H](NC(=O)c4cccc(-c5ccc(Cl)cc5F)c4)C(=O)O)cc3F)no2)cc1 [Compound 6C]
> 60% | CC(C)(C)OC(=O)Nc1ccc(-c2nc(-c3ccc(CC(NC(=O)c4cnn(-c5ccc(F)cc5)c4)C(=O)O)cc3F)no2)cc1 (centres unmarked) [Compound 2T]
40 to 60% | CC(C)(C)OC(=O)Nc1ccc(-c2nc(-c3ccc(CC(NC(=O)c4ccn(-c5ccc(C(F)(F)F)cc5)n4)C(=O)O)cc3F)no2)cc1 (centres unmarked) [Compound 3J]
40 to 60% | CC(C)(C)OC(=O)Nc1ccc(-c2nc(-c3ccc(CC(NC(=O)c4ncn(-c5ccc(C(C)(C)C)cc5)n4)C(=O)O)cc3F)no2)cc1 (centres unmarked) [Compound 3I]
> 60% | Cc1ccc(S(=O)(=O)N2Cc3cc(OC(=O)c4ccc(NC(=O)OC(C)(C)C)cc4)ccc3CC2C(=O)O)cc1F (centres unmarked) [Compound 5Y]
> 60% | Cc1ccc(-c2ccc(C(=O)NC3(C(=O)O)Cc4ccc(-c5noc(-c6ccc(NC(=O)OC(C)(C)C)cc6)n5)cc4C3)o2)cc1 (centres unmarked) [Compound 5Z]
40 to 60% | CC(C)(C)OC(=O)Nc1ccc(-c2nc(-c3ccc(CC(NC(=O)c4cc(-c5ccccc5)cs4)C(=O)O)cc3F)no2)cc1 (centres unmarked) [Compound 1Z]
40 to 60% | CC(C)(C)OC(=O)Nc1ccc(-c2nc(-c3ccc(CC(NC(=O)c4cccc(-c5ccc(Cl)cc5)c4F)C(=O)O)cc3F)no2)cc1 (centres unmarked) [Compound 1S]
> 60% | Cc1ccc(-c2cccc(C(=O)N[C@H](Cc3ccc(-c4noc(-c5ccc(NC(=O)OC(C)(C)C)cc5)n4)c(F)c3)C(=O)O)c2)s1 [Compound 6J]
> 60% | Cc1cccc(-c2ccc(C(=O)NC(Cc3ccc(-c4noc(-c5ccc(NC(=O)OC(C)(C)C)cc5)n4)c(F)c3)C(=O)O)o2)c1 (centres unmarked) [Compound 1K]
40 to 60% | CC(C)(C)OC(=O)Nc1ccc(-c2nc(-c3ccc(CC(NC(=O)c4cccc(-c5ccc(Cl)cc5)c4)C(=O)O)cc3F)no2)cc1 (centres unmarked) [Compound 2G]
> 60% | CC(C)(C)OC(=O)Nc1ccc(-c2nc(-c3ccc(CC(NC(=O)c4cn(-c5ccc(C(F)(F)F)cc5)nn4)C(=O)O)cc3F)no2)cc1 (centres unmarked) [Compound 2A]
> 60% | CC(C)(C)OC(=O)Nc1ccc(-c2nc(-c3ccc(CC(NC(=O)c4cc(-c5ccc(F)cc5)no4)C(=O)O)cc3F)no2)cc1 (centres unmarked) [Compound 2U]
